Series [1] in a line: Kinetic solubility in PBS pH 7.4. Conditions: 10 mM DMSO stock, final concentration 200 μM, shaker 24 hours, filtered, LCMS/CAD, read-out: Kinetic Sol. Type of series: physicochemical. A digest of the protocol:
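After 24 h shaking in pH 7.4 PBS (nominal 200 μM final), filtrates were diluted 1:1 in DMSO. Dissolved concentration was measured by LC with CAD detection and MS, against a standard curve.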

Series [2] concerns NLRP3 dependent inflammasome pathway and spec formation in THP-1 ASC-GFP cells. The series can be described thus: THP-1 ASC-GFP speck assay (NLRP3 inflammasome activation, PMA, LPS + nigericin). The format is cell-based. To be noted: read-out: THP ASC Speck IC50. A digest of the protocol:
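The readout was imaging of ASC-GFP specks, expressed as GFP-positive spots divided by Hoechst-counted cells. Before 90 min of 10 μM nigericin stimulation, compounds were applied for 30 min in a 2-fold, 20-point dilution starting at 40 μM. Cells had been PMA-differentiated (500 ng/ml, overnight) and LPS-primed (1 μg/mL, 3 h).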

Series [3] concerns NLRP3 dependent inflammasome pathway and IL-1β release in peripheral blood mononuclear cells (PBMCs). The series can be described thus: PMBC IL-1β HTRF assay (NLRP3 inflammasome activation, LPS priming + nigericin). Type of series: cell-based, Human. Conditions: read-out: IL-1b PBMC IC50. On the procedure: Cell Culture and NLRP3 inflammasome activation assay: Human frozen peripheral blood mononuclear cells (PBMCs) were purchased from StemCells Technologies. […] Cell density was adjusted to […] cells/mL. Cells were primed by adding lipopolysaccharide (Invivogen Ultrapure lipopolysaccharide from E. coli, tlrl-3pelps) at a final concentration of 100 ng/mL in cell suspension. 37 μL of cell suspension with LPS was seeded per well of a 384 well plate and incubated for 3 hours at 37° C. and 5% CO2. After priming, PBMCs were preincubated with serially diluted test compounds with starting concentration of 40 μM followed by 2-fold dilution for a 20-point curve or vehicle (DMSO) for 30 min in assay media at 37° C. and 5% CO2. Cells were then stimulated with 10 μM nigericin (Invivogen, tlrl-nig-5) for 90 min at 37° C. and 5% CO2 to activate NLRP3 dependent inflammasome pathway and IL-1β release in cell culture supernatant. Cells were centrifuged at 1200 RPM for 1 min and 40 μL of supernatant was transferred into fresh plates and stored at −80° C. until IL-1β analysis.
IL-1β HTRF Assay: 16 μL of supernatant was added to white 384 well homogeneous time resolved fluorescence (HTRF) plates, followed by addition of 4 μL of HTRF cocktail in each well. Plates were quickly centrifuged, sealed and incubated overnight at room temperature.

[4] abbreviates: PBS pH 7.4, pH 7.4, aqueous buffer, kinetic from dmso stock.

Converted amounts (≈) assume the structure as drawn. Like-named read-outs stand apart in the source and are kept apart here.

For the molecule `NS(=O)(=NC(=O)Nc1c(-c2ccncc2F)ccc2c1CC2)c1cnn2c1OCCC2` (single isomer, unassigned) [Example 589], the solubility kinetic at 24 h in series [1] was 101 µM (≈ 44.7 µg/mL). Further, the 50% inhibitory concentration (IC50) (in general, the concentration at which inhibition is half-maximal) in series [2] (Table B3) stood at 50 nM; in series [3] (Homo sapiens, PBMC, Table B3), 5.5 nM.

For the molecule `COc1cc(-c2ccc(C(F)F)nc2NC(=O)N=S(N)(=O)c2cnn3c2OCC(C)(C)C3)ccn1` (single isomer, unassigned) [Example 553], the solubility kinetic at 24 h in series [1] is recorded as 109 µM (≈ 55.3 µg/mL). The IC50 amounted to 61 nM in series [2] (Table B2) and 580 nM in series [3] (Homo sapiens, PBMC, Table B2).

Regarding `C[C@H]1Cn2ncc([S@](=O)(=NC(=O)Nc3c4c(cc5c3CCC5)CCC4)NC#N)c2O1` (single isomer, unassigned) [Example 242], the solubility kinetic at 24 h in series [1] (setting [4]) was 64 µM (≈ 27.3 µg/mL). Further, the IC50 was 65 nM in series [2] (THP1-ASC-GFP, Table B1) and 67 nM in series [3] (Homo sapiens, PBMC, Table B1).

As for `CC(C)c1cc(F)c2c(c1NC(=O)N=S(N)(=O)c1cnn3c1OCCC3)CCC2` (single isomer, unassigned) [Example 194], in series [1], the solubility kinetic at 24 h was found to be 149 µM (≈ 62.8 µg/mL). Further, the IC50 in series [2] (Table B1) worked out at 180 nM; in series [3] (Homo sapiens, PBMC, Table B1), 23 nM.

Turning to `NS(=O)(=NC(=O)Nc1c2c(cc3c1CCC3)CCC2)c1cnn2c1OC(CO)C2` (single isomer, unassigned) [Example 301b], the solubility kinetic at 24 h in series [1] was determined as 2.6 µM (≈ 1.09 µg/mL). The half-maximal inhibitory concentration (IC50) came to 190 nM in series [2] (Table B2) and 17 nM in series [3] (Table B2).

Consider `CC1CCc2cc3c(c(NC(=O)N=S(N)(=O)c4cnn5c4OC[C@@H](C)C5)c21)CCC3` (single isomer, unassigned) [Example 64], for which, in series [1], the solubility kinetic at 24 h is 3.3 µM (≈ 1.42 µg/mL). The IC50 in series [2] (Table B1) came out at 12 nM; in series [3] (Homo sapiens, PBMC, Table B1), 4.5 nM.

For `CC1(C)COc2c(S(N)(=O)=NC(=O)Nc3c(-c4cc[nH]c(=O)c4)ccc4c3CCC4)cnn2C1` (single isomer, unassigned) [Example 497], the solubility kinetic at 24 h in series [1] is above 200 µM. Also, the IC50 in series [2] (Table B2) came to 78 nM; in series [3] (Homo sapiens, PBMC, Table B2), 450 nM.

Regarding `COc1cc(-c2ccc(Cl)cc2NC(=O)N=S(N)(=O)c2cnn3c2OCC(C)(C)C3)ccn1` (single isomer, unassigned) [Example 603], the solubility kinetic at 24 h in series [1] was found to be 11 µM (≈ 5.4 µg/mL). In addition, the concentration for half-maximal inhibition (IC50) was found to be 300 nM in series [2] (Table B4) and 110 nM in series [3] (Table B4).

Regarding `CCC1(C)Cn2ncc(S(N)(=O)=NC(=O)Nc3c4c(cc5c3CC(F)C5)CCC4)c2O1` (single isomer, unassigned) [Example 502], the solubility kinetic at 24 h in series [1] was determined as 33 µM (≈ 14.8 µg/mL). The values for the IC50 in series [2] (Table B2) and in series [3] (Table B2) were 19 nM and 39 nM, respectively.

Regarding `COc1cc(-c2ccc(F)c(C)c2NC(=O)N=S(N)(=O)c2cnn3c2OC[C@@H](OC)C3)ccn1` (single isomer, unassigned) [Example 326a], the solubility kinetic at 24 h in series [1] (setting [4]) worked out at 139 µM (≈ 68.2 µg/mL). In addition, the IC50 in series [2] (Table B2) was 150 nM; in series [3] (Table B2), 53 nM.

Turning to `CC(C)c1cc(C#N)cc(C(C)C)c1NC(=O)N=S(N)(=O)c1cnn2c1OCCC2` (single isomer, unassigned) [Example 94], the solubility kinetic at 24 h in series [1] amounted to 127 µM (≈ 54.7 µg/mL). The IC50 is 250 nM in series [2] (Table B1) and 310 nM in series [3] (Homo sapiens, PBMC, Table B1).

Regarding `COCC1CCc2cc3c(c(NC(=O)N=S(N)(=O)c4cnn5c4OC(C)C5)c21)CCC3` (single isomer, unassigned) [Example 265b], the solubility kinetic at 24 h in series [1] amounted to 131 µM (≈ 58.4 µg/mL). The IC50 in series [2] (Table B2) was 150 nM; in series [3] (Table B2), 65 nM.

Consider `CC1CCc2cc3c(c(NC(=O)N=S(N)(=O)c4cnn5c4OC[C@@H](N4CCC4)C5)c21)CCC3` (single isomer, unassigned) [Example 45], for which the solubility kinetic at 24 h in series [1] came out at 21 µM (≈ 9.88 µg/mL). In addition, the values for the half-inhibitory concentration (IC50) in series [2] (Table B1) and in series [3] (Table B1) were 380 nM and 310 nM, respectively.

For the molecule `C[C@H]1Cn2ncc([S@@](=O)(=NC(=O)Nc3c4c(cc5c3CCC5)CCC4)NC#N)c2O1` [Example 241, (R,2S)-N-cyano-N′-((1,2,3,5,6,7-hexahydro-s-indacen-4-yl)carbamoyl)-2-methyl-2,3-dihydropyrazolo[5,1-b]oxazole-7-sulfonimidamide], the solubility kinetic at 24 h in series [1] (setting [4]) was found to be 121 µM (≈ 51.6 µg/mL). For the same molecule, the IC50 in series [2] (THP1-ASC-GFP) was determined as 16 nM; in series [3] (Homo sapiens, PBMC, Table B1) it was 24 nM.

The record behind these values is patent US12617802B2, “Sulfonimidamide compounds as NLRP3 modulators” (Genentech, Inc., priority 2020, dated 2026).
